According to patent US20240109917A1 (ACTELION PHARMACEUTICALS LTD, priority 2020, published 2024):
Where two headings read alike, the source gives them in different places.

Key:
[1] = target: Tb-labeled inactive PDGFRβ (Homo sapiens (Human), UniProt P09619); assay: PDGFRβ LanthaScreen Assay; type: binding; details: read-out: PDGFR Lantha IC50
PDGFRβ = PDGFRβ (Rattus norvegicus (Rat), UniProt Q05030); assay: PDGFRβ Cellular Assay (PDGFRb P-Y751 HTRF in A10 cells stimulated with PDGF-BB); type: cell-based
Summary of the method: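 Phospho-Y751 PDGFRβ was measured by HTRF in lysates of A10 rat cells. Cells received compound for 3 hours before PDGF-BB stimulation (100 ng/mL working stock).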

[2] = target: His6-TEV-PDGFRβ (557-1016) (Homo sapiens (Human), UniProt P09619); assay: PDGFRβ HTRF Assay; type: biochemical; details: read-out: PDGFR HTRF IC50
Summary of the method: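 HTRF KinEASE-TK readout (665/620 nm ratio) of TK-biotin substrate phosphorylation by His-tagged PDGFRβ kinase domain. Enzyme and inhibitor preincubated 30 min, then ATP/substrate added for 3 h at room temperature before 60 min EDTA quench/detection.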

PDGFRβ, sequence (Q05030 32-1097): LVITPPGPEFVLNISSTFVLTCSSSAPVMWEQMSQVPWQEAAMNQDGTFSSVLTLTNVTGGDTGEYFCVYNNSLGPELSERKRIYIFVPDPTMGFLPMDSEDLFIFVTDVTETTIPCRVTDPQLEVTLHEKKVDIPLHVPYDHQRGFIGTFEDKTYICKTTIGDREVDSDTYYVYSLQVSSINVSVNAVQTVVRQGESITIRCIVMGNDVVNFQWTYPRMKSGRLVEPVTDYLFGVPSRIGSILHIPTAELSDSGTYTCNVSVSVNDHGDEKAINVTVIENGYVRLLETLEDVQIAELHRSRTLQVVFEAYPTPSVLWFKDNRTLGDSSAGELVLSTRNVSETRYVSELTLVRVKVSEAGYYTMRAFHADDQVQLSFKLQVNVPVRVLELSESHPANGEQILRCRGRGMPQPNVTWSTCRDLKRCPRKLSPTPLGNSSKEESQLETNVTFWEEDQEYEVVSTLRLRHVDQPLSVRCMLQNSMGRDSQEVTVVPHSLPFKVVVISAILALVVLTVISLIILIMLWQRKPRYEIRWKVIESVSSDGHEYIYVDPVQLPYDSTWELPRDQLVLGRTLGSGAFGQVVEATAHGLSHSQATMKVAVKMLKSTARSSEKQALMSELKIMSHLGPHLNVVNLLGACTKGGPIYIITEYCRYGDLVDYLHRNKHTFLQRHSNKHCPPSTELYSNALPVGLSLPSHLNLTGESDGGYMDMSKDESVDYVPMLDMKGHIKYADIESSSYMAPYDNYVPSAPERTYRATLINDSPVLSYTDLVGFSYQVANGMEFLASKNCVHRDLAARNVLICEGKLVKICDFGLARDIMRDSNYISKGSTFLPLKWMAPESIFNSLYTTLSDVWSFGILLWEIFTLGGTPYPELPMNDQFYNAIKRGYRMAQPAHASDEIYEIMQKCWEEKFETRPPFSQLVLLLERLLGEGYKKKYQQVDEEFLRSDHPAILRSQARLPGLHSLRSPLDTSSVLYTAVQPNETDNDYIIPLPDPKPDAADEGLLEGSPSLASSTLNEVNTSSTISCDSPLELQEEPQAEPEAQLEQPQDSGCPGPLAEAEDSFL
His6-TEV-PDGFRβ (557-1016), sequence (P09619 557-1016): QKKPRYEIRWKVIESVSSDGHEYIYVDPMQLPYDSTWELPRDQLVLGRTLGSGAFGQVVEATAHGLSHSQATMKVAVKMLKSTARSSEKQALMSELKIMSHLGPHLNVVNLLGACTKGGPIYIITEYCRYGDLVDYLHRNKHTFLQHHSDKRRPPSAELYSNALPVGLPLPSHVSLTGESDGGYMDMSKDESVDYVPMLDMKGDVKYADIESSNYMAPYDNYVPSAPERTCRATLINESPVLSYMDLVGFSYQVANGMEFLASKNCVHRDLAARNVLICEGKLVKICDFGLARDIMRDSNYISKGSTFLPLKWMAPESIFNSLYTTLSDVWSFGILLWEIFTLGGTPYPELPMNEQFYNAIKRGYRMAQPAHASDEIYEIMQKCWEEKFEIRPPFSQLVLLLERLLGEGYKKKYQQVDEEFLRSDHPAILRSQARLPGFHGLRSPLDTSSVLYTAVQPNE
Tb-labeled inactive PDGFRβ, sequence (P09619 33-1106): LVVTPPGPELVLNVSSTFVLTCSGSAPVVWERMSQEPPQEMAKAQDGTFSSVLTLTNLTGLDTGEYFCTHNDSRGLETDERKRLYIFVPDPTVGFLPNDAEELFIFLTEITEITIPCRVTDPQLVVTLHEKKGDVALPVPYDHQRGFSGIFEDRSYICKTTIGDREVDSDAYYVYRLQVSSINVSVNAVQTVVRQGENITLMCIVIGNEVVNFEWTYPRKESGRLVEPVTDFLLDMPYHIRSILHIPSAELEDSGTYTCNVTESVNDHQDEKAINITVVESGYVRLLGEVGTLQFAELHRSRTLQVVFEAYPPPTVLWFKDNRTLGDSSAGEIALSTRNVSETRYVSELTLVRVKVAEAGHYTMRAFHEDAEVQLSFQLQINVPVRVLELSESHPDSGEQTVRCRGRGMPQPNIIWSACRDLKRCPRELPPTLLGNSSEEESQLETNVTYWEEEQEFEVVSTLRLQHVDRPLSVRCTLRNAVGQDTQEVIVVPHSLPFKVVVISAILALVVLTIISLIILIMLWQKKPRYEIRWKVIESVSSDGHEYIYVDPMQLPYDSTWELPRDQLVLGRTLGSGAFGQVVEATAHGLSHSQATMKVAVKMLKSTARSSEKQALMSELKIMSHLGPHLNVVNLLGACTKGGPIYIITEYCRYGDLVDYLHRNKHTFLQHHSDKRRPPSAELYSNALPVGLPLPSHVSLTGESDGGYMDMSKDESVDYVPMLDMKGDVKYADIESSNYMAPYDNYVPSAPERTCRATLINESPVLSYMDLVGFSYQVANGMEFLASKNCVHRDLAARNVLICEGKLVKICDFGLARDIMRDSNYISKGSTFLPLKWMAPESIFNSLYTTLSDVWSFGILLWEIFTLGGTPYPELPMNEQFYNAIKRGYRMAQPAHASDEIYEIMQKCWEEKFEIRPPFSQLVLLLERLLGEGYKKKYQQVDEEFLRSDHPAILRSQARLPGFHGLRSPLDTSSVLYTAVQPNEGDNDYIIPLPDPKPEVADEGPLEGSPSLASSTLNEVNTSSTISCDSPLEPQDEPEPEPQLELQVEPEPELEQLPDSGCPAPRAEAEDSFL

Structure (SMILES) | IC50 [1] [nM] | IC50 (PDGFRβ; read-out: PDGFR Cellular IC50) [nM] | IC50 [2] [nM] | IC50 (PDGFRβ; PDGFR Cellular IC50) [nM]
Cc1ncc(C(=O)NCCN2CCCC2(C)C)cc1NC(=O)c1cnn2cc(-c3cnn(Cc4cc(OCc5ccccc5)no4)c3)sc12 [Example 362, 2-(1-((3-(benzyloxy)isoxazol-5-yl)methyl)-1H-pyrazol-4-yl)-N-(5-((2-(2,2-dimethylpyrrolidin-1-yl)ethyl)carbamoyl)-2-methylpyridin-3-yl)pyrazolo[5,1-b]thiazole-7-carboxamide] | 4.5 | 62.3 | 0.5 | 
Cc1ncc(NC(=O)CN2CCC[C@@H]2C)cc1NC(=O)c1cnn2cc(-c3cnn(C)c3)sc12 [Example 27, (S)-2-(1-methyl-1H-pyrazol-4-yl)-N-(2-methyl-5-(2-(2-methyl-pyrrolidin-1-yl)acetamido)pyridin-3-yl)pyrazolo[5,1-b]thiazole-7-carboxamide] | 16.2 | 6.3 | 0.9 | 
COc1cc(-c2cn3ncc(C(=O)Nc4cc(NC(=O)CN5CC(C)(C)C5)cnc4C)c3s2)c(OC)nn1 [Example 393, 2-(3,6-dimethoxypyridazin-4-yl)-N-(5-(2-(3,3-dimethylazetidin-1-1)acetamido)-2-methylpyridin-3-yl)pyrazolo[5,1-b]thiazole-7-carboxamide] | 5.1 | 3.5 | 0.7 | 
Cc1ncc(NC(=O)CN2C[C@@H](CO)OC(C)(C)C2)cc1NC(=O)c1cnn2cc(-c3cnn(C)c3)sc12 [Example 377, (S)—N-(5-(2-(6-(hydroxymethyl)-2,2-dimethylmorpholino)acetamido)-2-methylpyridin-3-yl)-2-(1-methyl-1H-pyrazol-4-yl)pyrazolo[5,1-b]thiazole-7-carboxamide] | 6.2 | 119 | 0.8 | 
CCc1ncccc1-c1cn2ncc(C(=O)Nc3cc(NC(=O)CN4CC(C)(C)C4)cnc3C)c2s1 [Example 391, N-(5-(2-(3,3-dimethylazetidin-1-yl)acetamido)-2-methylpyridin-3-yl)-2-(2-ethylpyridin-3-yl)pyrazolo[5,1-b]thiazole-7-carboxamide] | 18.4 | 10.4 | 0.9 | 
COCCn1cc(-c2cn3ncc(C(=O)Nc4cc(NC(=O)CN5CCC(C)(C)C5)cnc4C)c3s2)cn1 [Example 336, N-(5-(2-(3,3-dimethylpyrrolidin-1-yl)acetamido)-2-methylpyridin-3-yl)-2-(1-(2-methoxyethyl)-1H-pyrazol-4-yl)pyrazolo[5,1-b]thiazole-7-carboxamide] | 3.3 | 3.1 | 0.4 | 
COc1ncccc1-c1cn2ncc(C(=O)Nc3cc(NC(=O)CN4C[C@H](CO)OC(C)(C)C4)cnc3C)c2s1 [Example 379, (R)—N-(5-(2-(6-(hydroxymethyl)-2,2-dimethylmorpholino)acetamido)-2-methylpyridin-3-yl)-2-(2-methoxypyridin-3-yl)pyrazolo[5,1-b]thiazole-7-carboxamide] | 2.7 | 9.2 | 0.4 | 
COc1cnccc1-c1cn2ncc(C(=O)Nc3cc(NC(=O)CN4CC(C)(C)C4)cnc3C)c2s1 [Example 399, N-(5-(2-(3,3-dimethylazetidin-1-yl)acetamido)-2-methylpyridin-3-yl)-2-(3-methoxypyridin-4-yl)pyrazolo[5,1-b]thiazole-7-carboxamide] | 1.1 | 1.3 | 0.2 | 
COc1ncccc1-c1cn2ncc(C(=O)Nc3cc(NC(=O)CN4CC(C)(C)C4)cnc3C)c2s1 [Example 369, N-(5-(2-(3,3-dimethylazetidin-1-yl)acetamido)-2-methylpyridin-3-yl)-2-(2-methoxypyridin-3-yl)pyrazolo[5,1-b]thiazole-7-carboxamide] | 1.4 | 1.6 | 0.2 | 
COc1ncccc1-c1cn2ncc(C(=O)Nc3cc(NC(=O)CN4C[C@H](C)O[C@@H](C)C4)cnc3C)c2s1 (relative stereo) [Example 384, N-(5-(2-(trans-2,6-dimethylmorpholino)acetamido)-2-methylpyridin-3-yl)-2-(2-methoxypyridin-3-yl)pyrazolo[5,1-b]thiazole-7-carboxamide] | 2.3 | 4.3 | 0.4 | 
Cc1ncc(NC(=O)[C@@H]2CCCN2C(C)C)cc1NC(=O)c1cnn2cc(-c3cnn4c3OCCC4)sc12 [Example 346, (S)-2-(6,7-dihydro-5H-pyrazolo[5,1-b][1,3]oxazin-3-yl)-N-(5-(1-isopropylpyrrolidine-2-carboxamido)-2-methylpyridin-3-yl)pyrazolo[5,1-b]thiazole-7-carboxamide] | 6.5 | 6.8 | 0.5 | 
Cc1ncc(NC(=O)C2CN(C(C)C)C2)cc1NC(=O)c1cnn2cc(-c3cn(C)nc3C)sc12 [Example 354, 2-(1,3-dimethyl-1H-pyrazol-4-yl)-N-(5-(1-isopropylazetidine-3-carboxamido)-2-methylpyridin-3-yl)pyrazolo[5,1-b]thiazole-7-carboxamide] | 4.3 | 78.8 | 0.2 | 
COc1ncccc1-c1cn2ncc(C(=O)Nc3cc(NC(=O)CN4CC(C)(OC)C4)cnc3C)c2s1 [Example 396, N-(5-(2-(3-methoxy-3-methylazetidin-1-yl)acetamido)-2-methylpyridin-3-yl)-2-(2-methoxypyridin-3-yl)pyrazolo[5,1-b]thiazole-7-carboxamide] | 1.8 | 4.3 | 0.3 | 
COc1ncccc1-c1cn2ncc(C(=O)Nc3cc(NC(=O)CN4C[C@H](C)O[C@@H](C)C4)cnc3C)c2s1 (relative stereo) [Example 368, N-(5-(2-(trans-2,6-dimethylmorpholino)acetamido)-2-methylpyridin-3-yl)-2-(2-methoxypyridin-3-yl)pyrazolo[5,1-b]thiazole-7-carboxamide] | 2.4 | 3.7 | 0.3 | 
COc1cccc(-c2cn3ncc(C(=O)Nc4cc(NC(=O)CN5CC(C)(C)C5)cnc4C)c3s2)n1 [Example 394, N-(5-(2-(3,3-dimethylazetidin-1-yl)acetamido)-2-methylpyridin-3-yl)-2-(6-methoxypyridin-2-yl)pyrazolo[5,1-b]thiazole-7-carboxamide] | 1.2 | 1.8 | 0.2 | 
Cc1ncc(NC(=O)C2CN(C(C)C)C2)cc1NC(=O)c1cnn2cc(-c3cnn4c3OCCC4)sc12 [Example 348, 2-(6,7-dihydro-5H-pyrazolo[5,1-b][1,3]oxazin-3-yl)-N-(5-(1-isopropylazetidine-3-carboxamido)-2-methylpyridin-3-yl)pyrazolo[5,1-b]thiazole-7-carboxamide] | 4 | 195 | 0.4 | 
Cc1ncc(NC(=O)CN2CCC23CCC3)cc1NC(=O)c1cnn2cc(-c3ccnc(N4CCOCC4)c3)sc12 [Example 353, N-(5-(2-(1-azaspiro[3.3]heptan-1-yl)acetamido)-2-methylpyridin-3-yl)-2-(2-morpholinopyridin-4-yl)pyrazolo[5,1-b]thiazole-7-carboxamide] | 1.4 | 1.6 | 0.2 | 
COCCn1cc(-c2cn3ncc(C(=O)Nc4cc(NC(=O)CN5CCCC56CCC6)cnc4C)c3s2)cn1 [Example 332, N-(5-(2-(5-azaspiro[3.4]octan-5-yl)acetamido)-2-methylpyridin-3-yl)-2-(1-(2-methoxyethyl)-1H-pyrazol-4-yl)pyrazolo[5,1-b]thiazole-7-carboxamide] | 4.1 | 4.5 | 0.6 | 
COCCn1cc(-c2cn3ncc(C(=O)Nc4cc(NC(=O)CN5C[C@H]6CC[C@@H]5C6)cnc4C)c3s2)cn1 [Example 334, N-(5-(2-((1R,4S)-2-azabicyclo[2.2.1]heptan-2-yl)acetamido)-2-methylpyridin-3-yl)-2-(1-(2-methoxyethyl)-1H-pyrazol-4-yl)pyrazolo[5,1-b]thiazole-7-carboxamide] | 9.1 |  | 0.5 | 11.7
Cc1ncc(NC(=O)CN2CC(C)(C)C2)cc1NC(=O)c1cnn2cc(-c3cncnc3C)sc12 [Example 398, N-(5-(2-(3,3-dimethylazetidin-1-yl)acetamido)-2-methylpyridin-3-yl)-2-(4-methylpyrimidin-5-yl)pyrazolo[5,1-b]thiazole-7-carboxamide] | 181 | 169 | 6.8 | 
COCCn1cc(-c2cn3ncc(C(=O)Nc4cc(NC(=O)[C@@H]5CCCN5C(C)C)cnc4C)c3s2)cn1 [Example 343, (S)—N-(5-(1-isopropylpyrrolidine-2-carboxamido)-2-methylpyridin-3-yl)-2-(1-(2-methoxyethyl)-1H-pyrazol-4-yl)pyrazolo[5,1-b]thiazole-7-carboxamide] | 84.8 | 47.9 | 3.5 | 
Cc1ncc(NC(=O)CN2C[C@H](C)O[C@@H](C)C2)cc1NC(=O)c1cnn2cc(-c3cnn4c3OCCC4)sc12 (relative stereo) [Example 375, 2-(6,7-dihydro-5H-pyrazolo[5,1-b][1,3]oxazin-3-yl)-N-(5-(2-(trans-2,6-dimethylmorpholino)acetamido)-2-methylpyridin-3-yl)pyrazolo[5,1-b]thiazole-7-carboxamide] | 4.5 | 10.2 | 0.6 | 
